Assays:
Format in all cases: in vivo
wheat powdery mildew = assay: Fungicidal activity on potted plants, wheat powdery mildew; conditions: spray on potted plant, inoculation after 24 hours
cucumber grey mold = assay: Fungicidal activity on potted plants, cucumber grey mold; conditions: 500 ppm, spray on potted plant, inoculation after 24 hours
cucumber downy mildew = assay: Fungicidal activity on potted plants, cucumber downy mildew; conditions: spray on potted plant, inoculation after 24 hours
green peach aphid = assay: Insecticidal activity, Potter spraying tower, green peach aphid; conditions: 150 ppm, mortality 2 to 3 days after treatment
Method: (§1) Determination of insecticidal and acaricidal activities against plant diseases of selected compounds were carried out by following procedure:
(§2) Technical samples were dissolved in acetone and diluted to required concentration with water containing 0.1% of tween 80. Armyworm, diamondback moth and green peach aphid were treated with Potter spraying tower, and culex mosquito was treated with dipping culture method. Mortality investigation of test insects was carried out 2 to 3 days after treatment.

culex mosquito = assay: Insecticidal activity, dipping culture method, culex mosquito; conditions: 150 ppm, mortality 2 to 3 days after treatment
Method: as §1, §2

armyworm = assay: Insecticidal activity, Potter spraying tower, armyworm; conditions: 150 ppm, mortality 2 to 3 days after treatment
Method: as §1, §2

diamondback moth = assay: Insecticidal activity, Potter spraying tower, diamondback moth; conditions: 150 ppm, mortality 2 to 3 days after treatment
Method: as §1, §2

[1] = tested on: apple alternaria leaf spot; assay: Fungicidal activity on potted plants, apple alternaria leaf spot; conditions: 100 ppm
rape sclerotiniose = assay: Fungicidal activity on potted plants, rape sclerotiniose; conditions: 100 ppm
tomato early blight = assay: Fungicidal activity on potted plants, tomato early blight; conditions: 100 ppm
grape downy mildew = assay: Fungicidal activity on potted plants, grape downy mildew; conditions: 100 ppm
grape white rot = assay: Fungicidal activity on potted plants, grape white rot; conditions: 100 ppm
apple ring rot = assay: Fungicidal activity on potted plants, apple ring rot; conditions: 100 ppm
Method: Determination of fungicidal activities against plant diseases of selected compounds were carried out by following procedure:
Technical samples were dissolved in DMF and diluted to required concentration wtih water containing 0.1% tween 80. Test solution was sprayed onto potted plant. Pathogen inoculation was carried out after 24 hours then plants were hold in growth chambers containing constant temperature and moisture for effect. When untreated plant was under desirable disease severity (after 1 week approximately), assessment were carried out by visual observation.

wheat head blight = conditions: 100 ppm
tomato late blight = conditions: 100 ppm
[2] = tested on: corn southern leaf blight; assay: Fungicidal activity on potted plants, corn southern leaf blight; conditions: 100 ppm

Structure (SMILES) | control against wheat powdery mildew (wheat powdery mildew; 500 ppm) | control against wheat powdery mildew (wheat powdery mildew; 50 ppm) | control against cucumber downy mildew (cucumber downy mildew; 50 ppm) | control against cucumber downy mildew (cucumber downy mildew; 500 ppm) | other results
CO/N=C(/C(=O)OC)c1ccccc1COc1cc(-c2ccccc2)nn1C [Compound 247] | 100% |  |  |  | control against cucumber grey mold (cucumber grey mold): 100%
CO/C=C(/C(=O)OC)c1ccccc1COc1cc(-c2ccccc2)nn1C [Compound 1] | 100% | 100% | 100% | 100% | 
CO/C=C(/C(=O)OC)c1ccccc1COc1c(C)c(-c2ccc(Cl)cc2)nn1C [Compound 30] | 100% | 100% | 100% | 100% | control of aphids (green peach aphid): 100%; control of culex mosquitoes (culex mosquito): 100%; control of armyworm (armyworm): 100%; control of diamond backmoth (diamondback moth): 100%
CO/C=C(/C(=O)OC)c1ccccc1COc1cc(-c2ccc(OCC(F)(F)F)cc2)nn1C [Compound 74] | 100% |  |  | 100% | 
CNC(=O)/C(=N/OC)c1ccccc1COc1cc(-c2ccc(Cl)cc2)nn1C(C)C [Compound 435] | 100% |  |  |  | 
CO/C=C(/C(=O)OC)c1ccccc1COc1cc(-c2ccc(Oc3ccccc3)cc2)nn1C [Compound 174] | 100% |  |  |  | 
CO/C=C(/C(=O)OC)c1ccccc1COc1c(Cl)c(-c2ccc(-c3ccc(Cl)cc3)cc2)nn1C [Compound 179] | 100% |  |  |  | 
CO/C=C(/C(=O)OC)c1ccccc1COc1cc(-c2ccc(C(F)(F)F)cc2)nn1C [Compound 5] | 100% | 100% | 100% | 100% | 
CO/C=C(/C(=O)OC)c1ccccc1COc1cc(-c2ccccc2)no1 [Compound 83] | 100% |  |  | 100% | 
CO/C=C(/C(=O)OC)c1ccccc1COc1cc(-c2ccc([N+](=O)[O-])cc2)no1 [Compound 86] | 100% | 100% | 100% | 100% | 
CO/C=C(/C(=O)OC)c1ccccc1COc1cc(-c2ccc(OC)c(OC)c2)nn1C [Compound 12] | 100% |  |  | 100% | 
CO/C=C(/C(=O)OC)c1ccccc1COc1cc(-c2ccc([N+](=O)[O-])cc2)nn1C [Compound 4] | 100% | 100% | 100% | 100% | 
CNC(=O)/C(=N/OC)c1ccccc1COc1cc(-c2ccc(Cl)cc2)nn1C [Compound 356] | 100% |  |  |  | 
CO/C=C(/C(=O)OC)c1ccccc1COc1cc(-c2cc(F)c(Cl)cc2Cl)nn1C [Compound 11] | 100% |  |  | 100% | 
CO/N=C(/C(=O)OC)c1ccccc1COc1cc(-c2ccc(Cl)nc2)nn1C [Compound 287] | 100% | 100% | 100% | 100% | 
CO/C=C(/C(=O)OC)c1ccccc1COc1cc(-c2ccc(Cl)nc2)nn1C [Compound 69] | 100% | 100% | 100% | 100% | 
CO/C=C(/C(=O)OC)c1ccccc1COc1cc(-c2ccc(Cl)cc2)no1 [Compound 84] | 100% | 100% | 100% | 100% | 
CO/C=C(/C(=O)OC)c1ccccc1COc1cc(-c2ccc(Cl)cc2)nn1C(C)C [Compound 190] | 100% |  |  | 100% | 
CO/C=C(/C(=O)OC)c1ccccc1COc1cc(-c2ccc(SC)cc2)nn1C [Compound 165] | 100% |  |  |  | 
CO/C=C(/C(=O)OC)c1ccccc1COc1cc(-c2ccc(Cl)nc2)no1 [Compound 151] | 100% |  |  |  | control against cucumber grey mold (cucumber grey mold): 100%
CO/C=C(/C(=O)OC)c1ccccc1COc1cc(-c2ccc(Cl)cc2)nn1C [Compound 2] | 100% | 100% | 100% | 100% | control against apple alternaria leaf spot [1]: more than 80%; control against rape sclerotiniose (rape sclerotiniose): more than 80%; control against tomato early blight (tomato early blight): more than 80%; control against grape downy mildew (grape downy mildew): more than 80%; control against grape white rot (grape white rot): more than 80%; control against apple ring rot (apple ring rot): more than 80%; control against wheat head blight (wheat head blight): more than 80%; control against tomato late blight (tomato late blight): more than 80%; control against corn southern leaf blight [2]: more than 80%
CO/N=C(/C(=O)OC)c1ccccc1COc1cc(-c2ccc(Cl)cc2)nn1C [Compound 248] | 100% |  |  | 100% | 
